Like-named read-outs stand apart in the source and are kept apart here.

For data set [1] the following is noted: cited from earlier work.
For data set [2] the following is noted: cited from earlier work. The source holds these as a separate data set.
The conditions of data set [3]: cited from earlier work. The source holds these as a separate data set.
For data set [4] the following is noted: cited from earlier work; for Grade ≥3 decrease in neutrophil count: laboratory findings.
In data set [5] the test system is EGFR^ex19del/T790M PDX NSCLC tumor fragments (TM00219, Jackson Labs). Put plainly: Example 4: Compound IV +/- osimertinib in EGFR ex19del/T790M PDX model. Format: in vivo, NSG mice. Conditions: once daily oral gavage 28 days; Compound IV 100 mg/kg or osimertinib 2.5 mg/kg alone. From the text: (§1) The x-axis is days from initiation measured in time and the y-axis is mean tumor volume measured in mm^3.
The x-axis is days from initiation measured in time and the y-axis is median tumor volume measured in mm^3.
After 28 days tumors continued to be measured until they reached tumor burden (>2000 mm^3).

The conditions of data set [6]: human, in vivo; cited from earlier work.
Data set [7] concerns EGFR^ex20ins PDX NSCLC tumor fragments (LU0387, CrownBio). Put plainly: Example 5: Compound IV +/- osimertinib in EGFR ex20ins PDX model. Conditions: once daily oral gavage, 17 days; Compound IV 100 mg/kg or osimertinib 10 mg/kg alone. It counts as in vivo, BALB/c nude mice.
Source text: as §1
Tumors continued to be measured until they reached tumor burden (>3000 mm3).

For data set [8] the following is noted: in vivo; cited from earlier work.
The conditions of data set [9]: cited from earlier work. This is another data set of the same source.
For data set [10] the following is noted: cited from earlier work. The source holds these as a separate data set.
Setting [11] is: all grades, GILOTRIF n=229, pemetrexed/cisplatin n=111.

In the case of `CN(C)C/C=C/C(=O)Nc1cc2c(Nc3ccc(F)c(Cl)c3)ncnc2cc1O[C@H]1CCOC1` [GILOTRIF, afatinib], in [1] (3865 patients), the “fatal liver test abnormalities” value was 0.18% and the liver test abnormalities is 10.1%. For the same compound, in [1] (setting [11]), the diarrhea is reported as 96%, the dry skin is 31%, the paronychia was 58% and the pruritus is listed as 21%. Also, in data set [1] (setting [11]), the rash/acneiform dermatitis is given as 90% and the stomatitis is reported as 71%. Moreover, in data set [1] (human, in vivo), the decreased appetite was 29%, the fatal pneumonia is listed as 0.43%, the “fatal pulmonary toxicity/interstitial lung disease (ILD)-like adverse reactions” value is reported as 1.3% and the fatal sepsis was 0.43%. In [1] (human, in vivo), the nausea was 25%, the “serious adverse reaction: diarrhea” value is given as 6.6%, the “serious adverse reaction: dyspnea” value is 1.7% and the “serious adverse reaction: fatigue” value is reported as 1.7%. Besides, in data set [1] (human, in vivo), the “serious adverse reaction: hypokalemia” value is recorded as 1.7%, the “serious adverse reaction: vomiting” value was 4.8%, the serious adverse reactions is given as 29% and the “ventricular dysfunction (all <Grade 3)” value is recorded as 2.2%. The vomiting in data set [1] (human, in vivo) is recorded as 23%.

As for `COc1cc2ncnc(Nc3ccc(F)c(Cl)c3)c2cc1OCCCN1CCOCC1` [IRESSA, gefitinib], in [2] (across NSCLC), the skin reactions was 47%. In addition, in data set [2] (human, in vivo), the “incidence of fatal hepatotoxicity” value is 0.04%.

`C#Cc1cccc(Nc2ncnc3cc(OCCOC)c(OCCOC)cc23)c1.Cl` [TARCEVA, erlotinib]: in [3] (approximately 32,000 patients, all studies), the “overall incidence of ILD” value is given as “approximately 1.1%”. For the same compound, in data set [3] (human, in vivo), the “discontinued therapy due to adverse reactions” value was 14.3%, the “dose interruptions or reductions due to adverse reactions” value is 37%, the “dose modification due to asthenia” value was 3.6% and the “dose modification due to diarrhea” value was 10%. Further, in data set [3] (human, in vivo), the “dose modification due to rash” value was 13%; the “liver function test abnormalities (ALT, AST, bilirubin)” value is “Grade 2 and Grade 3 liver function test abnormalities”; the “median time to onset of diarrhea” value is 32 days; the “median time to onset of rash” value is listed as 15 days. Moreover, in data set [3] (human, in vivo), the “most frequent Grade 3-4 adverse reactions” value is “rash and diarrhea”; the “most frequent adverse reactions: diarrhea, asthenia, rash, cough, dyspnea, decreased appetite” value was at least 30%. In data set [3] (patients with ILD), the “median onset of ILD symptoms after initiating therapy” value is on record as 39 days and the “onset of ILD symptoms after initiating therapy (span)” value was “between 5 days to more than 9 months”.

Turning to `CCN1CCN(Cc2ccc(Nc3ncc(F)c(-c4cc(F)c5nc(C)n(C(C)C)c5c4)n3)nc2)CC1` [abemaciclib], the “Grade ≥3 decrease in neutrophil count” value in [4] (MONARCH 1) is on record as 27%. In data set [4] (alone, MONARCH 1), the “Grade 3 diarrhea” value is recorded as 20%, the diarrhea is on record as 90% and the neutropenia is listed as 37%. Moreover, in data set [4] (human, in vivo), the “alanine aminotransferase (ALT) increased” value is on record as 41%, the “aspartate aminotransferase (AST) increased” value is on record as 37%, the “dose reductions due to diarrhea of any grade” value is listed as 19% and the “dose reductions due to neutropenia of any grade” value is 10%. In addition, the “permanent treatment discontinuation due to an adverse event” value in data set [4] (human, in vivo) was 9%. For the same compound, in data set [4] (plus fulvestrant, MONARCH 2), the “Grade 3 diarrhea” value is 13%, the diarrhea was 86%, the neutropenia is 46% and the “Grade ≥3 decrease in neutrophil count” value is 32%. For the same compound, in data set [4] (plus fulvestrant), the “dose reductions due to an adverse reaction” value is 43%.

Take `C=CC(=O)Nc1cc(Nc2nccc(-c3cn(C)c4ccccc34)n2)c(OC)cc1N(C)CCN(C)C` [osimertinib, reference compound]: the “tumor growth vs vehicle, single agent” value in data set [5] is given as “modest tumor growth inhibition”; in [7], “did not cause an effect”. Moreover, the nail toxicity in data set [6] is listed as 22%. Besides, the “patients experiencing Grade 3 neutropenia” value in [6] was “up to 2.2%”.

Turning to `CC(=O)c1c(C)c2cnc(Nc3ccc(N4CCNCC4)cn3)nc2n(C2CCCC2)c1=O` [palbociclib], the T½ entry in data set [8] was “roughly 27 hours”. In addition, the incidence of neutropenia in data set [9] (Study 1 (PALOMA-2)) is on record as 80%. For the same compound, in [9] (Study 2 (PALOMA-3)), the incidence of neutropenia is 83%. Further, in data set [9] (human, in vivo), the complete drug discontinuation was 8%, the “median duration of Grade ≥3 neutropenia” value is given as 7 days, the “median time to first episode of any grade neutropenia” value is given as 15 days and the “patients requiring a dose interruption” value was 71%. The “patients requiring a dose reduction” value in [9] (human, in vivo) is recorded as 36%. In data set [9] (patients in PALOMA-2 and PALOMA-3), the “Grade ≥3 decrease in neutrophil counts” value is given as 66%. For the same compound, in data set [9] (patients treated), the increased alanine transferase is on record as 40% and the “increased aspartate aminotransferase (AST)” value is listed as 48%.

For the compound `CN(C)C(=O)c1cc2cnc(Nc3ccc(N4CCNCC4)cn3)nc2n1C1CCCC1` [ribociclib], in data set [10] (KISQALI treatment arms), the “Grade 3 or 4 increases in ALT” value is 10% and the “Grade 3 or 4 increases in AST” value is listed as 7%. Further, the “patients with at least one average QTcF interval of more than 480 msec after baseline” value in data set [10] (MONALEESA-2 study) is listed as 3.3%. Also, in [10] (adverse reaction), the alopecia is on record as 33%, the back pain is given as 20%, the constipation is recorded as 25% and the diarrhea is reported as 35%. Further, in [10] (adverse reaction), the fatigue was 37%, the headache was 22%, the leukopenia was 33% and the neutropenia is listed as 75%. In data set [10] (adverse reaction), the vomiting is listed as 29%. Further, in data set [10] (based on laboratory findings), the “Grade 3/4 decrease in neutrophil count” value was 60%. Further, in data set [10] (first mention), the “treatment discontinuation due to increased ALT” value was 4%. In [10] (human, in vivo), the QT interval result is listed as “prolong the QT interval in a concentration-dependent manner”, the “dose reductions due to adverse reactions” value was 45%, the “permanent discontinuations due to ARs” value was 7% and the “treatment discontinuation due to vomiting” value is listed as 2%. Moreover, the “treatment discontinuation due to increased ALT” value in data set [10] (second mention) is recorded as 3%.

Values taken from patent US11395821B2, “Treatment of EGFR-driven cancer with fewer side effects” (G1 Therapeutics, Inc., priority 2017, dated 2022).
